melting point [°C] | Compound
98 to 101 | c1ccc(C(OC[C@H]2CO2)(c2ccccc2)c2ccccc2)cc1
117 to 120 | COc1cc(OC(C)=O)c2c(=O)c(O[C@@H]3O[C@H](COC(C)=O)[C@H](OC(C)=O)[C@H](OC(C)=O)[C@@H]3O[C@@H]3O[C@H](C)[C@H](OC(C)=O)[C@H](OC(C)=O)[C@@H]3OC(C)=O)c(-c3ccc(OC(C)=O)c(OC(C)=O)c3)oc2c1
160 | O=C(O)c1cc(Br)ccc1Cl
77.5 | COc1ccc2c(OC(C)=O)c(OC)c(OC)c(OC(C)=O)c2c1
207 to 209 | CCOC(=O)C1=C(C)NC(=S)NC1c1ccccc1 (stereo unspecified)
48 | CC#CC1(O)CCCCC1
300 | O=C(O)C=CC(=O)C=CC(=O)O
94 | COc1ccc(C#N)c(OC)c1
165 | COc1ccccc1-c1nnc2n1CN(c1ccccc1)CS2
260 | NC(Cc1ccc(Cl)cc1)C(=O)O (stereo unspecified)
297 to 305 | CCOC(=O)c1cnc2ccc(OC(F)(F)F)cc2c1O
200 | COc1ccc2c(c1)C(=O)C(=O)N2
179 | CCOC(=O)C1=NN(c2ccccc2)C(=O)C1CC1C(=O)N(c2ccccc2)N=C1C(=O)OCC (stereo unspecified)
170 | O=[N+]([O-])c1ccc(C=Cc2cccc(CO)n2)o1
215 | N#C/C(=N\Nc1ccc(F)cc1)c1nc2ccccc2c(=O)[nH]1
300 | Nc1c[nH]c(=O)[nH]c1=O
-105 | CC(C)CCCC(C)O (stereo unspecified)
37 | Cc1ccc(C)c(C)n1
45 | COc1cccc(CCC(=O)O)c1
145 | COC(CNC(c1ccccc1)C(O)c1ccccc1)OC (stereo unspecified)
17.5 | CCOC(=O)C=CN(C)C

melting point [°C] | Compound
64 | O=[N+]([O-])c1ccc(OCCBr)cc1
179 | O=C(Nc1ccc(O)cc1)c1ccccc1O
153 | Cc1c(S(=O)(=O)Cl)sc2ccc(Cl)cc12
131 | COC(=O)c1cccc([N+](=O)[O-])c1O
-45 | CCC1COC(=O)O1 (stereo unspecified)
> 270 | Nc1nnc(-c2ccccc2)s1
191 | CC1(/C(=N\Nc2ccc([N+](=O)[O-])cc2[N+](=O)[O-])C(=O)O)CCC(C(=O)O)C1(C)C (stereo unspecified)
89 | CC1C=Cn2c(cc3ccccc3c2=O)C1 (stereo unspecified)
80 to 83 | COC(=O)C1=NC(C)(C)[N+]([O-])=C1
69 to 70 | N#Cc1ccccc1S(=O)(=O)Cl
35.5 | N#CCc1ccc(Cc2ccccc2)cc1
53.5 | CCOC(=O)C=Cc1cccc(C=CC(=O)OCC)c1
133 | COc1ccc(/C=C2\SC(=S)N(CN3CCOCC3)C2=O)cc1
115 | CC1CCC(C(C)C)C(OC(=O)C(C(=O)c2ccccc2)c2ccccc2)C1 (stereo unspecified)
148 | O=C(C=CN(O)c1ccccc1)c1ccc2c(c1)CCCC2
-101 | FC(Cl)C(F)Cl (stereo unspecified)
79 | O=C(O)c1ccccc1OC(F)(F)F
289 | CC(C)N1CSc2nnc(-c3cccnc3)n2C1
85 | COc1ccc(CO)cc1OCc1ccccc1
108 | Cc1cc(N=Nc2ccccc2)c(C(C)C)cc1N=Nc1ccccc1
234 | CCOC(=O)C1C(c2ccccc2)C(C(=O)OCC)C(O)(C(F)(F)F)NC1(O)C(F)(F)F (stereo unspecified)

melting point [°C] | Compound
131 | O=C(O)[C@H](O)[C@@H](O)[C@H](O)[C@H](O)CO
257 to 259 | CCOC(=O)c1cn[nH]c1NC(=O)Nc1cccc(Cl)c1
108 | COc1ccc(C2Cc3ccccc3C(=O)O2)cc1 (stereo unspecified)
90 to 91 | CSC(Cl)=NS(=O)(=O)c1ccc(C)cc1
155 | Nc1nc(-c2ccc3ccccc3c2)cs1
-4 | CC(C)(C)CC(C)(C)c1ccc(OCCO)cc1
97 | CC(C)n1cc(-c2ccc(F)cc2)c2ccccc21
24 | Brc1ccc2ncccc2c1
184 to 185 | Cc1cc(C2(c3ccc(O)c(C)c3)CCCCC2)ccc1O
72 to 73 | Cn1nc(CCl)cc1-c1ccco1
126 | O=C1Cc2cc3c(cc21)OCO3
198 | Cc1ncc(CO)c(N)n1
166 to 167 | Cc1nc(-c2cc(C(=O)O)no2)cs1
-9 | C1=CCCCCCCCCCC1
105 | CCSc1nc(NC(C)C)nc(NC(C)C)n1
47 to 48 | C#CC(O)(c1ccccc1)c1ccccc1
138 to 140 | O=C(O)CCSCSCCC(=O)O
116 to 119 | CCCc1c(C(=O)O)cnn1-c1ccc(Cl)cc1
236 | O=C(O)c1cccc(S(=O)(=O)Nc2ccccc2)c1
162 to 164 | O=C(O)C1CCN(c2ccc(C(F)(F)F)cn2)CC1
106 to 108 | OCc1ccc2nccn2c1

melting point [°C] | Compound
57 to 61 | N#Cc1c(F)cc(F)cc1F
212 | O=C(Nc1ccc2nn(C3CCCCC3)nc2c1)c1ccccc1
113 to 115 | O=C(Cl)c1ccc(-c2cccs2)cc1
176 | N=C(N)NC(=N)NCCc1ccccc1
146 | CC1CCC(C)(COC(=O)C2C(=O)C3(C)CCC2C3(C)C)C1(C)C (stereo unspecified)
102 | COc1ccc2cc(Nc3ccc4c(c3)OCCO4)ccc2c1
99 to 101 | O=Cc1cccc2nsnc12
297 to 299 | O=C(O)c1ccc(Br)c(C(=O)O)c1
85 to 88 | Cc1cc(C(=O)NN)nn1C(C)(C)C
169 to 171 | Nc1n[nH]c(N)c1Cc1ccc2c(c1)OCO2
36.5 | Cc1ccc(O)c(C(C)C)c1
296 | Cc1cccc(/N=N/c2c(N)nn3c(-c4ccccc4)cc(=O)[nH]c23)c1
66 | c1ccc(OCCOCCOc2ccccc2)cc1
210 to 213 | O=[N+]([O-])c1cc2c3ccccc3ccc2c2ccccc12
154 to 155 | NC(=S)CCn1cccc(C(F)(F)F)c1=O
135 to 145 | BrCC(CBr)=C(CBr)CBr
156 | O=C1CCCC(=O)N1
92.7 | OCCC(F)(F)C(F)(F)C(F)(F)C(F)(F)C(F)(F)C(F)(F)C(F)(F)C(F)(F)C(F)(F)C(F)(F)F

Compound | melting point [°C]
CC12CCC3C(CCC4CC(O)CCC43C)C1CCC2=O (stereo unspecified) | 185
CCC(C)(C)c1ccc(O)c(C(C)(C)CC)c1 | 25
CCCCC1CO1 (stereo unspecified) | 94
O=C(NC(=O)c1c(F)cccc1F)Nc1cc(Cl)c(F)c(Cl)c1F | 225
CC12CCC(O)CC1=CCC1C2CCC2(C)C1CCC2(O)C#CCl (stereo unspecified) | 175 to 177
O=C(O)/C=C/Cl | 82
CCN(CC)c1nc(C)cc(OP(=S)(OC)OC)n1 | 21
NC(=O)c1cccc(CCl)c1 | 125 to 127
CC(=O)Oc1cccc(C#N)c1 | 60
CN1CCC23c4c5ccc(O)c4OC2C(=O)CCC3(O)C1C5 (stereo unspecified) | 248

From a melting point compilation (Tetko et al.)
